Laboratory results reported in patent US20250089717A1, “FUNGICIDAL HALOMETHYL KETONES, HYDRATES AND ENOL ETHERS AND THEIR MIXTURES” (FMC CORPORATION, priority 2023, published 2025).

Test system: Phakopsora pachyrhizi
Experiment: Test A: preventive spray on soybean seedlings, Asian soybean rust, visual disease rating
Type: in vivo
Conditions: rate 10 ppm
Text: General protocol for preparing test suspensions for Test A: the test compounds were first dissolved in acetone in an amount equal to 3% of the final volume and then suspended at the desired concentration (in ppm) in acetone and purified water (50/50 mix by volume) containing 250 ppm of the surfactant PEG400 (polyhydric alcohol esters). The resulting test suspensions were then used in Test A.
The test solution was sprayed to the point of run-off on soybean seedlings. The following day the seedlings were inoculated with a spore suspension of Phakopsora pachyrhizi (the causal agent of Asian soybean rust) and incubated in a saturated atmosphere at 22° C. for 24 h and then moved to a growth chamber at 22° C. for 8 days, after which time visual disease ratings were made.
A rating of 100 indicates 100% disease control and a rating of 0 indicates no disease control (relative to the controls).

| SMILES | Test A rating (100 = 100% disease control, 0 = no disease control relative to the controls) [%] |
| --- | --- |
| CCO/C(=C\Oc1ccc(Cn2cc(C(=O)NOCC3CC3)cn2)cc1)C(F)(F)F [compound 25] | 100 |
| CCO/C(=C\Oc1ccc(Cn2cc(COC(=O)CCC(=O)OC)cn2)cc1)C(F)(F)F [compound 26] | 100 |
| CCO/C(=C\Oc1ccc(Cn2cc(COC(=O)C3CCCC3)cn2)cc1)C(F)(F)F [compound 29] | 100 |
| CCO/C(=C\Oc1ccc(Cn2cc(C(=O)NOCC=CCl)cn2)cc1)C(F)(F)F [compound 32] | 100 |
| CCO/C(=C\Oc1ccc(Cn2cc(C(=NOCC3CC3)OC)cn2)cc1)C(F)(F)F [compound 34] | 97 |
| CCO/C(=C\Oc1ccc(Cn2cc(COC(=O)C(CC)CC)cn2)cc1)C(F)(F)F [compound 36] | 100 |
| CCO/C(=C\Oc1ccc(Cn2cc(C(=O)N(C)OCC3CC3)cn2)cc1)C(F)(F)F [compound 39] | 100 |
| C=CCON(CC)C(=O)c1cnn(Cc2ccc(O/C=C(\OCC)C(F)(F)F)cc2)c1 [compound 41] | 94 |
| C=CCON=C(OCCCC)c1cnn(Cc2ccc(O/C=C(\OCC)C(F)(F)F)cc2)c1 [compound 42] | 96 |
| C=CCON(CCCC)C(=O)c1cnn(Cc2ccc(O/C=C(\OCC)C(F)(F)F)cc2)c1 [compound 43] | 87 |
| C#CCC(=O)OCc1cnn(Cc2ccc(O/C=C(\OCC)C(F)(F)F)cc2)c1 [compound 44] | 100 |
| CCO/C(=C\Oc1ccc(Cn2cc(COC(=O)CC(C)(C)C)cn2)cc1)C(F)(F)F [compound 49] | 99 |
| CCO/C(=C\Oc1ccc(Cn2cc(COC(=O)C3CC3)cn2)cc1)C(F)(F)F [compound 51] | 100 |
| CCOC(=O)OCc1cnn(Cc2ccc(O/C=C(\OCC)C(F)(F)F)cc2)c1 [compound 53] | 100 |
| CCO/C(=C\Oc1ccc(Cn2cc(C(N)=NO)cn2)cc1)C(F)(F)F [compound 56] | 84 |
| CCO/C(=C\Oc1ccc(Cn2cc(COCC3(C)CC3)cn2)cc1)C(F)(F)F [compound 57] | 100 |

| SMILES | Test A rating (100 = 100% disease control, 0 = no disease control relative to the controls) [%] |
| --- | --- |
| CCO/C(=C\Oc1ccc(Cn2cc(COC3CCC3)cn2)cc1)C(F)(F)F [compound 59] | 100 |
| C=CCONC(=O)c1cnn(CCCc2ccc(O/C=C(\OCC)C(F)(F)F)cc2)c1 [compound 60] | 96 |
| C=CCON=C(OCC)c1cnn(CCc2ccc(O/C=C(\OCC)C(F)(F)F)cc2)c1 [compound 61] | 100 |
| C=CCONC(=O)c1cnn(CCc2ccc(O/C=C(\OCC)C(F)(F)F)cc2)c1 [compound 62] | 100 |
| CCO/C(=C\Oc1ccc(Cn2cc(COCC3CCCC3)cn2)cc1)C(F)(F)F [compound 63] | 100 |
| CCO/C(=C\Oc1ccc(Cn2cc(COCC3CC3)cn2)cc1)C(F)(F)F [compound 64] | 100 |
| C#CCOCc1cnn(Cc2ccc(O/C=C(\OCC)C(F)(F)F)cc2)c1 [compound 65] | 100 |
| C=CCOCc1cnn(Cc2ccc(O/C=C(\OCC)C(F)(F)F)cc2)c1 [compound 66] | 100 |
| CCO/C(=C\Oc1ccc(Cn2cc(C(=O)NOCCO)cn2)cc1)C(F)(F)F [compound 67] | 100 |
| CCO/C(=C\Oc1ccc(Cn2cccc(C(=O)NOCC#N)c2=O)cc1)C(F)(F)F [compound 98] | 99 |
| C#CCON(C)C(=O)c1cccn(Cc2ccc(O/C=C(\OCC)C(F)(F)F)cc2)c1=O [compound 99] | 92 |
| C#CCONC(=O)c1cccn(Cc2ccc(O/C=C(\OCC)C(F)(F)F)cc2)c1=O [compound 100] | 98 |
| CCO/C(=C\Oc1ccc(Cn2cccc(C(=O)N(C)OCCOC)c2=O)cc1)C(F)(F)F [compound 101] | 94 |
| CCO/C(=C\Oc1ccc(Cn2cccc(C(=O)N(C)OCC3CC3)c2=O)cc1)C(F)(F)F [compound 102] | 99 |
| CCO/C(=C\Oc1ccc(Cn2cccc(C(=O)NOCCOC)c2=O)cc1)C(F)(F)F [compound 103] | 97 |
| CCO/C(=C\Oc1ccc(Cn2cccc(C(=O)NOCC3CC3)c2=O)cc1)C(F)(F)F [compound 104] | 100 |

Same assay, conditions: rate 10 ppm, read-out: Test A rating (100 = 100% disease control, 0 = no disease control relative to the controls)

| SMILES | pest or weed control at 10 ppm [%] |
| --- | --- |
| C=CCO/N=C(/OCC)c1ccn(Cc2ccc(O/C=C(\OCC)C(F)(F)F)cc2)n1 [compound 110] | 99 |
| C=CCONC(=O)c1ccn(Cc2ccc(O/C=C(\OCC)C(F)(F)F)cc2)n1 [compound 111] | 100 |
| CCO/C(=C\Oc1ccc(Cc2nc(C(=O)NOCCOC)cs2)cc1)C(F)(F)F [compound 112] | 100 |
| C=CCO/N=C(/OCC)c1cnn(Cc2cccc(O/C=C(\OCC)C(F)(F)F)c2)c1 [compound 113] | 87 |
| C=CCONC(=O)c1cnn(Cc2cccc(O/C=C(\OCC)C(F)(F)F)c2)c1 [compound 114] | 100 |
| C=CCONC(=O)c1ccn(Cc2ccc(O/C=C(\OCC)C(F)(F)F)cc2)c1 [compound 115] | 96 |
| CCO/C(=C\Oc1ccc(Cc2nc(C(=O)NOCC3CC3)cs2)cc1)C(F)(F)F [compound 116] | 100 |
| C=CCONC(=O)c1csc(Cc2ccc(O/C=C(\OCC)C(F)(F)F)cc2)n1 [compound 117] | 100 |
| C=CCO/N=C(\OCC)c1cc(Cc2ccc(O/C=C(\OCC)C(F)(F)F)cc2)ccn1 [compound 118] | 100 |
| CCO/C(=C\Oc1ccc(Cc2cccc(C(=O)N(C)OCc3ccccc3)n2)cc1)C(F)(F)F [compound 122] | 100 |
| CCO/C(=C\Oc1ccc(Cc2cccc(C(=O)NOCc3ccccc3)n2)cc1)C(F)(F)F [compound 126] | 99 |
| C=CCONC(=O)c1cc(Cc2ccc(OCC3(C(F)(F)F)OCCO3)cc2)ccn1 [compound 129] | 98 |
| C=CCON(C)C(=O)c1cc(Cc2ccc(OCC3(C(F)(F)F)OCCO3)cc2)ccn1 [compound 130] | 99 |
| C#CCO/N=C(\OC)c1cccc(Cc2ccc(O/C=C(\OCC)C(F)(F)F)cc2)n1 [compound 134] | 99 |
| C=CCON(C)C(=O)c1cc(Cc2ccc(O/C=C(\OCC)C(F)(F)F)cc2)ccn1 [compound 135] | 100 |

Same assay, conditions: rate 250 ppm, read-out: Test A rating (100 = 100% disease control, 0 = no disease control relative to the controls)

| SMILES | pest or weed control at 250 ppm [%] |
| --- | --- |
| C=CCON(CC)C(=O)c1cccc(Cc2ccc(O/C=C(\OCC)C(F)(F)F)cc2)c1 [compound 128] | 100 |
